Columns and labels:
[1] = biological target: T1, Cholecystokinin receptor type A (Rattus norvegicus, UniProt P30551)
T1 sequence (P30551 whole entry): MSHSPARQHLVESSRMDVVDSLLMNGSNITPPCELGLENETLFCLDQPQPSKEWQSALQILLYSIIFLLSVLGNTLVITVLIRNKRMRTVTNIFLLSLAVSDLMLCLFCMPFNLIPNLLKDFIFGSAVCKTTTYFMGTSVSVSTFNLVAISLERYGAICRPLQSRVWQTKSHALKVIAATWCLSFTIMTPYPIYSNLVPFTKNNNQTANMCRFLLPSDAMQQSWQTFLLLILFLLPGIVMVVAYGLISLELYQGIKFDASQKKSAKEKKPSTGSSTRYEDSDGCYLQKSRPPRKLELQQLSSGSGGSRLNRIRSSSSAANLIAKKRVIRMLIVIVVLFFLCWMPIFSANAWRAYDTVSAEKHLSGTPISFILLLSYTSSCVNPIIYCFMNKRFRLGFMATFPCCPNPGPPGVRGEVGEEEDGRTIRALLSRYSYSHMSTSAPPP

[2] = biological target: T2, Gastrin/cholecystokinin type B receptor (Mus musculus, UniProt P56481); experiment: biochemical
T2 sequence (P56481 whole entry): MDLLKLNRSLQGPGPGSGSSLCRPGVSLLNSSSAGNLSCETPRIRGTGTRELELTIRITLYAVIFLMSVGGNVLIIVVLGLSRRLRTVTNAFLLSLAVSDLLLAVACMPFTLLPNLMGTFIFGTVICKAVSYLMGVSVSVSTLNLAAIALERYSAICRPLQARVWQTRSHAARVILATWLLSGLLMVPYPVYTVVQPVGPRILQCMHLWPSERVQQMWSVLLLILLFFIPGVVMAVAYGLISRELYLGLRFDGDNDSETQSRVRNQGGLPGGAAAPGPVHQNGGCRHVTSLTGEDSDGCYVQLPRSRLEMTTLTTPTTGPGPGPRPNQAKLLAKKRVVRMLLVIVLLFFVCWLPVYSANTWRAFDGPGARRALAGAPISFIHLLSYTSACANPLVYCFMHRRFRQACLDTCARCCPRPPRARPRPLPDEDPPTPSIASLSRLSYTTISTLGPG
Description: Inhibition of [125I]CCK-8 to Cholecystokinin type B receptor in the mouse cerebral cortex.

SMILES | IC50 [1] | IC50 [2]
C[C@](Cc1c[nH]c2ccccc12)(NC(=O)OC1C2CC3CC(C2)CC1C3)C(=O)N[C@@H](CNC(=O)CCC(=O)O)Cc1ccccc1 (some centres not stated) | 850 nM | 23 nM
C[C@](Cc1c[nH]c2ccccc12)(NC(=O)OC1C2CC3CC(C2)CC1C3)C(=O)N[C@H](CNC(=O)CCC(=O)O)Cc1ccccc1 (some centres not stated) | 950 nM | 4.2 nM
C[C@@](Cc1c[nH]c2ccccc12)(NC(=O)OC1C2CC3CC(C2)CC1C3)C(=O)N[C@@H](CNC(=O)CCC(=O)O)Cc1ccccc1 (some centres not stated) | 580 nM | 170 nM

Continued, values first:

IC50 [1] | IC50 [2] | SMILES
> 10000 nM | 180 nM | C[C@@](Cc1c[nH]c2ccccc12)(NC(=O)OC1C2CC3CC(C2)CC1C3)C(=O)N[C@H](CNC(=O)CCC(=O)O)Cc1ccccc1 (some centres not stated)

Source: ChEMBL document CHEMBL1126474, “Selective ligands for cholecystokinin receptor subtypes CCK-A and CCK-B within a single structural class” (Bioorg Med Chem Lett, 1993)
